In patent publication US9822147B2, “Methods of treating ophthalmic diseases using NPR-B agonists” (priority 2009, dated 2017):

What was measured:
[1] = system: human renal carcinoma cells; conditions: 100 μM; cited from earlier work
NPR-B receptor = molecular target: T1, NPR-B receptor (Mus musculus, UniProt Q6VVW5); conditions: AtT-20 cells; cited from earlier work
T1 construct: the only natriuretic receptor present on the cell surface was the NPR-B receptor; host or cells: AtT-20 pituitary tumor cells (endogenous receptor)
T1 sequence (Q6VVW5 17-1047): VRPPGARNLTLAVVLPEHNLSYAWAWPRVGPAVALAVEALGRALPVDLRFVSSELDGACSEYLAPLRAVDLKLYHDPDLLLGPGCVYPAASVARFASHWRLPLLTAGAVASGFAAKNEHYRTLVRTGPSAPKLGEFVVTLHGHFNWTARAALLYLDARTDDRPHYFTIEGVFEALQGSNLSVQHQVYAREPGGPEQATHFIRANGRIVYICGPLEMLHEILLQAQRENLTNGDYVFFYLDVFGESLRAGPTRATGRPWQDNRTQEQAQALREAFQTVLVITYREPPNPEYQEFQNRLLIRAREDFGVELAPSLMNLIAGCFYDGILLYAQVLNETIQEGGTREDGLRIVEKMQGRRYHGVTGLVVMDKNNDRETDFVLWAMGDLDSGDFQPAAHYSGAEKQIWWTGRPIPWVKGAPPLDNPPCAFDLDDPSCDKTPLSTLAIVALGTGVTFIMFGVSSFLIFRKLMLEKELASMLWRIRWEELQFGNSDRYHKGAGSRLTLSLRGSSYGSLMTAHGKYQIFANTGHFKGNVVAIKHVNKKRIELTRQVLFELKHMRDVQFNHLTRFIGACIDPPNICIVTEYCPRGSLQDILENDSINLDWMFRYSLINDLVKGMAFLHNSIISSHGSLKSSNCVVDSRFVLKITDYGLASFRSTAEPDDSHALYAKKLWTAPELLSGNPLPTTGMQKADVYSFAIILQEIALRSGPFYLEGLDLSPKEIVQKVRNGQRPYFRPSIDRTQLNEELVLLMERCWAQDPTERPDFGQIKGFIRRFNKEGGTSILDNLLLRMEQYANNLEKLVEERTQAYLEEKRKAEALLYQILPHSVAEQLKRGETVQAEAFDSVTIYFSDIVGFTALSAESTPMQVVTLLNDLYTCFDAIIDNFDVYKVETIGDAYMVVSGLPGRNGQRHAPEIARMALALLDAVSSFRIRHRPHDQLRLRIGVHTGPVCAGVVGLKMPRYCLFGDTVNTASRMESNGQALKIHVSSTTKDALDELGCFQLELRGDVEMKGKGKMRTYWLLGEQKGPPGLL

rabbit eyes = assay: Efficacy in the rabbit: intraocular pressure (IOP) after a single topical ocular drop; type: in vivo; conditions: dose 300 ug topical ocular, single 30 μL drop, up to 4 hr post dose, 1% as suspension (+) or solution (++) per mark on label
Method: A single 30 μL drop of a test item formulation was administered to rabbit eyes (n=8 to 10).
Intraocular pressure (IOP) was assessed in each eye at 0 hr, just prior to dosing, and again hourly for up to 4 hr post dose. The efficacy of a given formulation was determined based on the difference between the pretreatment TOP readings at 0 hr and the post treatment readings. A maximum percent reduction in IOP greater than 15% was noted by the “+” symbol. A maximum IOP reduction of less than 15% was assigned the “−” symbol.

chondrocytes = conditions: CNP 10 to 100 pM, at the highest dose; cited from earlier work
[2] = system: small-cell lung cancer cells; conditions: 100 μM; cited from earlier work

CC[C@H](C)[C@@H]1NC(=O)[C@H](CCCNC(=N)N)NC(=O)[C@H](CC(=O)O)NC(=O)[C@H](CC(C)C)NC(=O)[C@H](CCCCN)NC(=O)[C@H](CC(C)C)NC(=O)CNC(=O)[C@H](Cc2ccccc2)NC(=O)[C@@H](NC(=O)CNC(=O)[C@H](CCCCN)NC(=O)[C@H](CO)NC(=O)[C@H](CC(C)C)NC(=O)CN)CSSC[C@@H](C(=O)O)NC(=O)CNC(=O)[C@H](CC(C)C)NC(=O)CNC(=O)[C@H](CO)NC(=O)[C@H](CCSC)NC(=O)[C@H](CO)NC(=O)CNC1=O [CNP, C-type natriuretic peptide]
decrease in cell number of human renal carcinoma cells [1]: 10%
stimulation of cGMP production (NPR-B receptor): up to 200 fold
RIOP, maximum percent reduction in IOP (rabbit eyes): − (− IOP reduction <15%)
increase in cellularity (chondrocyte proliferation) (chondrocytes): up to 43%
decrease in the number of small-cell lung cancer cells [2]: 39%
